Source: US20150174202A1, “Methods and Compositions for Modulating Beta Cell Proliferation” (The Board of Trustees of the Leland Stanford Junior …, priority 2011, published 2015)
“Also recorded” adds a separate entry of the source.

Experiments:
Assay type in all cases: cell-based
Ezh2 [1] = assay: Ezh2/Ezh1 expression in cultured mouse islets (real-time RT-PCR, western blot); settings: 2 days; for effect of inhibitor on PDGF-AA-induced Ezh2 expression: 3 week-old mouse islets, PDGF-AA plus inhibitor; for Ezh2 mRNA levels after mitogen exposure: juvenile mouse islets exposed to insulin or prolactin
Protocol: Mouse pancreatic islets were purified as described in Chen et al. (2009) Genes Dev. 23, 975-985 and used immediately for assays described in the text. To study Ezh2 induction in cultured islets exposed to mitogens, freshly isolated islets from 2-3-week old, and 7-12-month old C57BL/6 mice were recovered and equilibrated overnight at 37° C., 5% CO2 in RPMI-1640 medium supplemented with 0.5% fetal bovine serum (FBS), 0.2% bovine albumin (BSA) and 2% penicillin/streptomycin. Afterwards, islets were distributed into microplates or dishes, and treated with recombinant human PDGF-AA, prolactin or insulin (Sigma), with or without addition of pharmacological inhibitors, including Sunitinib (Selleck), […]0126 (Sigma), LY294002 (Sigma) or U-73122 (Sigma) at the indicated concentrations. Two days later, islets were harvested for RNA or protein extraction for real-time RTPCR or western blot analyses. To detect phosphorylation of Pdgfr-α by western blot, islets were exposed to PDGF-AA (with or without indicated pharmacological inhibitors) for 90 min before islet harvesting and protein extraction. To detect in vitro islet β-cell proliferation stimulated by PDGF-AA, a final concentration of 50 μM BrdU was introduced into each culture dish 24 h before harvest, followed by standard histological processing. Immunostaining of BrdU and insulin was performed on processed islets, and β-cell proliferation rate was determined by quantifying percentage of insulin+ cells with BrdU+. Culture experiments of human islets were performed using a similar procedure described later. Total RNA from freshly isolated or cultured islets after indicated treatments were purified using the Absolutely RNA miniprep purification kit (Stratagene) according to the manufacturer's instructions. RNA concentration was measured with a RiboGreen RNA quantification assay (Invitrogen). One-step quantitative RT-PCR was performed and analysed using an ABI Prism 7300 detection system (Applied Biosystems) with TaqMan one-step RTPCR Master Mix Reagents and appropriate amounts (10-100 ng) of islet total RNA as the template. We calculated the ratio of mRNA for the gene of interest to the amount of internal control mRNA of peptidylprolyl isomerase A (cyclophilin A, PPIA), and then normalized the ratio for each gene to its median. For western blots, total islet protein was prepared from freshly isolated or cultured islets after indicated treatments as described in Chen et al. (2009) Genes Dev. 23, 975-985. Equal amounts of protein were resolved on SDS-PAGE and transferred to polyvinylidine fluoride membranes (Amersham Pharmacia) for immunoblotting with specific antibodies, including rabbit polyclonal anti-human Ezh2 (1:1,000, Millipore), rabbit polyclonal anti-phospho-PDGFR-α ([…]) (1:1,000, Santa Cruz Biotechnologies), rabbit monoclonal anti-PDGFR-α (1:1,000, Cell Signaling), mouse monoclonal anti-β-actin (1:4,000, Sigma), rabbit monoclonal anti-Akt (1:1,500, Cell Signaling), rabbit monoclonal anti-phospho-Ark ([…]) (1:1,000, Cell Signaling), rabbit monoclonal anti-p44/42 MAPK (Erk1/2) (1:1,500, Cell Signaling), rabbit monoclonal anti-phospho-p44/42 MAPK (Erk1/2) […]) (1:1,000, Cell Signaling), rabbit monoclonal anti-PLCγ1 (1:1,000, Cell Signaling) and rabbit monoclonal anti-phospho-PLCγ1 ([…]) (1:1,000, Cell Signaling). Signal was visualized using ECL detection (Amersham Pharmacia) on Kodak film after further incubation with HRP-conjugated secondary antibodies. For phospho-PDGFR-α ([…]) and PDGFR-α detection, signal was amplified by incubating the membrane with biotinylated anti-rabbit-IgG (1:2,000), followed with an incubation with HRP-avidin (1:2,000, Vector Laboratories) and then ECL visualization.

mouse islet β-cells = assay: In vitro mouse islet β-cell proliferation (BrdU incorporation); settings: 3 week-old mouse islets, PDGF-AA 50 ng/ml plus inhibitor (Sunitinib 2 μM, Vargatef 5 μM), 2 days
Protocol: Mouse pancreatic islets were purified as described in Chen et al. (2009) Genes Dev. 23, 975-985 and used immediately for assays described in the text. To study Ezh2 induction in cultured islets exposed to mitogens, freshly isolated islets from 2-3-week old, and 7-12-month old C57BL/6 mice were recovered and equilibrated overnight at 37° C., 5% CO2 in RPMI-1640 medium supplemented with 0.5% fetal bovine serum (FBS), 0.2% bovine albumin (BSA) and 2% penicillin/streptomycin. Afterwards, islets were distributed into microplates or dishes, and treated with recombinant human PDGF-AA, prolactin or insulin (Sigma), with or without addition of pharmacological inhibitors, including Sunitinib (Selleck), […]0126 (Sigma), LY294002 (Sigma) or U-73122 (Sigma) at the indicated concentrations. Two days later, islets were harvested for RNA or protein extraction for real-time RTPCR or western blot analyses. To detect phosphorylation of Pdgfr-α by western blot, islets were exposed to PDGF-AA (with or without indicated pharmacological inhibitors) for 90 min before islet harvesting and protein extraction. To detect in vitro islet β-cell proliferation stimulated by PDGF-AA, a final concentration of 50 μM BrdU was introduced into each culture dish 24 h before harvest, followed by standard histological processing. Immunostaining of BrdU and insulin was performed on processed islets, and β-cell proliferation rate was determined by quantifying percentage of insulin+ cells with BrdU+. […] For measuring pancreatic β-cell mass or BrdU by morphometry, three to six mice for each group were analysed. At least five sections separated by more than 300 μm (pancreases) or 50 μm (cultured islets) were immunostained and assessed for each sample. Images were analysed with an ImagePro program by observers blinded to genotype, and pancreatic β-cell mass and percentage of BrdU+β-cells were calculated as described in Chen et al. Polycomb protein Ezh2 regulates pancreatic 6-cell Ink4a/Arf expression and regeneration in diabetes mellitus. […]

human islet β-cells = assay: In vitro human islet β-cell proliferation (BrdU incorporation); settings: juvenile human islets, PDGF-AA 50 ng/ml with Sunitinib 2 μM or U0126 10 μM
Text: (§1) For islet studies, human islets were isolated either at Pittsburgh University Medical Center or the University of Alabama, Birmingham. Eight independent human islet preparations from juvenile donors at the age of 8 months, 1.0, 1.5, 2, 3, 4, 5 and 6 years, and three adult islet preparations from donors at the age of 39, 48 and 56 years were used in this study. After isolation, fresh islets were hand-picked and transferred to RPMI-1640 medium supplemented with 0.5% FBS, 0.2% BSA and 2% penicillin/streptomycin for an overnight recovery before experiments. […] To detect in vitro human islet β-cell proliferation stimulated by PDGF-AA, human islets were exposed to 50 μM BrdU for 24 h. Afterwards, human islets were processed in a similar way as in mouse islet studies for immunostaining of insulin, glucagon, PDX1 and BrdU. β-Cell proliferation rate was determined by quantifying percentage of insulin+ cells with BrdU+. More than 50 islets per group were counted for determining cultured human islet β-cell proliferation rate.

EZH2 [2] = assay: EZH2/EZH1 mRNA in cultured human islets (real-time RT-PCR); settings: juvenile human islets, PDGF-AA 50 ng/ml with Sunitinib 2 μM or U0126 10 μM, 2 days
Protocol: as §1, with “Total RNA from freshly isolated or cultured islets after indicated treatments were purified using the Absolutely RNA miniprep purification kit (Stratagene) according to the manufacturer's instructions. RNA concentration was measured with a RiboGreen RNA quantification assay (Invitrogen). One-step quantitative RT-PCR was performed and analysed using an ABI Prism 7300 detection system (Applied Biosystems) with TaqMan one-step RTPCR Master Mix Reagents and appropriate amounts (10-100 ng) of islet total RNA as the template. We calculated the ratio of mRNA for the gene of interest to the amount of internal control mRNA of peptidylprolyl isomerase A (cyclophilin A, PPIA), and then normalized the ratio for each gene to its median. For” for “For”

PDGFRA [3] = assay: PDGFRA expression in mouse islets exposed to 5-aza-C
Text: (§2) The CpG tool of the UCSC genome browser (v257) identifies two CpG islands upstream of the translational start site of the mouse Pdgfra gene, spanning the regions −9040/−9610 and −5662/−5054 (FIG. 20). The more 3′ promoter-proximal CpG island at −5662/−5054 aligns well with regions associated with histone H3K4me1 and H3K4me3, marks of enhancers or cis-regulatory elements, with lesser overlap in the more 5′ CpG island at −9040/−9610. There are also two CpG islands within the −3,600 to +118 region of the human PDGFRA promoter-proximal region, and evidence exists that DNA methylation within the most 3′ CpG island regulates PDGFRA expression (Toepoel et al 2008). […] These findings indicate that DNA methylation and associated chromatin remodeling regulates expression of islet β-cell PDGFRA.

PDGFRA [4] = assay: PDGFRA expression in human islets exposed to 5-aza-C
Text: as §2

## COC(=O)c1ccc2c(c1)NC(=O)/C2=C(\Nc1ccc(N(C)C(=O)CN2CCN(C)CC2)cc1)c1ccccc1 [Vargatef, reference compound]
Ezh2 [1]
  effect of inhibitor on PDGF-AA-induced Ezh2 expression: eliminated
Mouse islet β-cells
  effect of inhibitor on PDGF-AA-increased β-cell BrdU incorporation: eliminated

## N#CC(=C(/N)Sc1ccccc1N)/C(C#N)=C(\N)Sc1ccccc1N [U0126, reference compound]
Ezh2 [1]
  effect of inhibitor on PDGF-AA-induced Ezh2 expression: blocked; also recorded: attenuates
Mouse islet β-cells
  effect of inhibitor on PDGF-AA-increased β-cell BrdU incorporation: blocked; also recorded: attenuates
Human islet β-cells
  effect of inhibitor on PDGF-AA-increased β-cell BrdU incorporation: eliminated
EZH2 [2]
  effect of inhibitor on PDGF-AA-increased EZH2 mRNA: blocked

## insulin
Ezh2 [1]
  Ezh2 mRNA levels after mitogen exposure: did not detectably alter
Ezh2 [1]; listed as Insulin
  Ezh2 mRNA levels after mitogen exposure: did not induce

## Nc1ncn([C@@H]2O[C@H](CO)[C@@H](O)[C@H]2O)c(=O)n1 [5-aza-C, 5-aza-cytidine]
PDGFRA [3]
  derepression of PDGFRA: dosage-dependent derepression; also recorded: dosage-dependent de-repression
PDGFRA [4]
  derepression of PDGFRA: dosage-dependent derepression; also recorded: dosage-dependent de-repression
